Results taken from patent US4339535A, “Process for preparing antibiotic EM 4940” (E. R. Squibb & Sons, Inc., priority 1980, dated 1982).
≈ marks a conversion by molar mass, not a printed value. Read-outs that look alike come from different tables or passages of the source.

Key:
Salmonella typhimurium [1] = test: MIC aerobic screen, H-59 synthetic agar; details: Salmonella enterica, read-out: Minimum Inhibitory Concentration
Shigella sonnei [2] = test: MIC aerobic screen, BA-2 agar; assay type: cell-based; details: strain 8449
Hemophilus vaginalis = test: MIC anaerobic screen; assay type: cell-based; details: Table IV
E. floccosum = test: MIC against dermatophytes; assay type: cell-based; details: Epidermophyton floccosum; Table VI; strain 9185; 26° C., 48 hours; read-out: Minimum Inhibitory Concentration
solubility = assay type: physicochemical
[3] = tested on: Acinetobacter calcoaceticus; test: MIC aerobic screen, BA-2 agar; details: Acinetobacter calcoaceticus, strain 8333
Pseudomonas aeruginosa [4] = test: MIC aerobic screen, H-59 synthetic agar
[5] = tested on: gram-positive and gram-negative bacteria, yeasts, fungi, acholeplasma, and the protozoan Trichomonas vaginalis; test: biological activity, general statement; details: A form versus B form
Klebsiella pneumoniae = test: MIC aerobic screen, BA-2 agar
Propionibacterium acnes = test: MIC anaerobic screen; assay type: cell-based; details: Cutibacterium acnes, Table IV, strain 4020, read-out: Minimum Inhibitory Concentration
T. mentagrophytes = test: MIC against dermatophytes; assay type: cell-based; details: Trichophyton mentagrophytes; Table VI; strain 2637; 26° C., 48 hours; read-out: Minimum Inhibitory Concentration
Candida albicans = test: MIC against Candida albicans (broth tube dilution); assay type: cell-based; details: Table V, strain 5314, read-out: Minimum Inhibitory Concentration
Bifidobacterium dentium = test: MIC anaerobic screen; assay type: cell-based; details: Table IV, strain 11,260, read-out: Minimum Inhibitory Concentration
Trichomonas vaginalis = test: MIC against Trichomonas vaginalis; assay type: cell-based; details: Table VII, strain 8560, anaerobic, 37° C., 40 hours, read-out: Minimum Inhibitory Concentration
Proteus morganii = test: MIC aerobic screen, BA-2 agar; details: Morganella morganii, strain 9774
Enterobacter cloacae = test: MIC aerobic screen, H-59 synthetic agar; details: read-out: Minimum Inhibitory Concentration
Staphylococcus aureus = test: MIC aerobic screen, BA-2 agar; details: Staphylococcus aureus
Shigella sonnei [6] = test: MIC aerobic screen, H-59 synthetic agar; assay type: cell-based; details: Table III, H-59 agar, strain 8449, read-out: Minimum Inhibitory Concentration
From the text: (A) Using H-59 Synthetic Agar

Bacteroides fragilis = test: MIC anaerobic screen; assay type: cell-based
Pseudomonas aeruginosa [7] = test: MIC aerobic screen, BA-2 agar; details: Pseudomonas aeruginosa
Serratia marcescens [8] = test: MIC aerobic screen, BA-2 agar; details: Serratia marcescens
Escherichia coli = test: MIC aerobic screen, H-59 synthetic agar
T. rubrum = test: MIC against dermatophytes; assay type: cell-based; details: Trichophyton rubrum; Table VI; strain 9199; 26° C., 48 hours; read-out: Minimum Inhibitory Concentration
Serratia marcescens [9] = test: MIC aerobic screen, H-59 synthetic agar
Streptococcus faecalis [10] = test: MIC aerobic screen, BA-2 agar; details: Enterococcus faecalis, strain 9011
Salmonella typhimurium [11] = test: MIC aerobic screen, BA-2 agar
Streptococcus faecalis [12] = test: MIC aerobic screen, H-59 synthetic agar; details: Enterococcus faecalis, read-out: Minimum Inhibitory Concentration
[13] = read-out: Minimum Inhibitory Concentration, Table I, BA-2 agar
[14] = read-out: Minimum Inhibitory Concentration, Table II, additional tests

In the case of CC1(O)CC(C(N)=O)N=C1c1ncccc1O (stereo not drawn) [EM4940A, 2,4-trans-3,4-dihydro-4-hydroxy-5-(3-hydroxy-2-pyridinyl)-4-methyl-2H-pyrrole-2-carboxamide], the MIC (Salmonella typhimurium [1]) is reported as 50 µg/mL (≈ 213 µM), the MIC (Shigella sonnei [2]; Shigella sonnei, Table I, BA-2 agar, read-out: Minimum Inhibitory Concentration) is reported as 50 µg/mL (≈ 213 µM) and the “Minimum Inhibitory Concentration” value (Shigella sonnei [2]; Table II, additional tests) is reported as 50 µg/mL. The MIC (Hemophilus vaginalis; strain 8568, read-out: Minimum Inhibitory Concentration) was 100 µg/mL (≈ 425 µM), the “Minimum Inhibitory Concentration” value (Hemophilus vaginalis; strain 9640) was 100.00 µg/mL and the MIC (E. floccosum) was > 100 µg/mL. For the same compound, the solubility (solubility; hexane) was “Insoluble”, the solubility (solubility; methanol, ethanol, ethyl acetate, acetone and chloroform) was “soluble” and the solubility (solubility; water) was “Insoluble”. For the same compound, the MIC [3, 13] was 50 µg/mL (≈ 213 µM), the MIC [3, 14] was 100 µg/mL (≈ 425 µM) and the MIC (Pseudomonas aeruginosa [4]; read-out: Minimum Inhibitory Concentration, Table III, H-59 agar, strain 8754) was > 100 µg/mL. The MIC (Pseudomonas aeruginosa [4]; read-out: Minimum Inhibitory Concentration, Table III, H-59 agar, strain 9330) was 50 µg/mL (≈ 213 µM), the MIC (Pseudomonas aeruginosa [4]; read-out: Minimum Inhibitory Concentration, Table III, H-59 agar, strain 9545) was 25 µg/mL (≈ 106 µM) and the “biological activity of A form relative to B form” value [5] was “more active than the B form”. For the same compound, the MIC (Klebsiella pneumoniae; Klebsiella pneumoniae, read-out: Minimum Inhibitory Concentration) was 50 µg/mL (≈ 213 µM), the “Minimum Inhibitory Concentration” value (Klebsiella pneumoniae; Table II, additional tests, strain 11,066) was 50 µg/mL and the MIC (Propionibacterium acnes) was 50 µg/mL (≈ 213 µM). For the same compound, the MIC (T. mentagrophytes) was > 100 µg/mL, the MIC (Candida albicans; Candida albicans, Medium: F4) was > 100 µg/mL and the MIC (Candida albicans; Medium: Yeast Nitrogen Base + Glucose) was > 100 µg/mL. For the same compound, the MIC (Bifidobacterium dentium) was > 100 µg/mL, the MIC (Trichomonas vaginalis) was 12.5 µg/mL (≈ 53.1 µM) and the MIC (Proteus morganii; [13]) was 50 µg/mL (≈ 213 µM). For the same compound, the MIC (Proteus morganii; [14]) was 100 µg/mL (≈ 425 µM), the MIC (Enterobacter cloacae) was 100 µg/mL (≈ 425 µM) and the MIC (Staphylococcus aureus; read-out: Minimum Inhibitory Concentration, Table I, BA-2 agar, strain 2400) was > 100 µg/mL. The MIC (Staphylococcus aureus; read-out: Minimum Inhibitory Concentration, Table I, BA-2 agar, strain 10,165) was 50 µg/mL (≈ 213 µM), the MIC (Staphylococcus aureus; read-out: Minimum Inhibitory Concentration, Table I, BA-2 agar, strain 11,239) was > 100 µg/mL and the MIC (Staphylococcus aureus; read-out: Minimum Inhibitory Concentration, Table II, additional tests, strain 2400) was > 200 µg/mL. The MIC (Staphylococcus aureus; read-out: Minimum Inhibitory Concentration, Table II, additional tests, strain 2661) was > 200 µg/mL, the MIC (Staphylococcus aureus; read-out: Minimum Inhibitory Concentration, Table II, additional tests, strain 10,165) was 100 µg/mL (≈ 425 µM) and the MIC (Staphylococcus aureus; read-out: Minimum Inhibitory Concentration, Table II, additional tests, strain 11,239) was 50 µg/mL (≈ 213 µM). For the same compound, the MIC (Shigella sonnei [6]) was 50 µg/mL (≈ 213 µM), the MIC (Bacteroides fragilis; Table IV, anaerobic, strain 9005, read-out: Minimum Inhibitory Concentration) was 50 µg/mL (≈ 213 µM) and the MIC (Bacteroides fragilis; Table IV, anaerobic, strain 10,277, read-out: Minimum Inhibitory Concentration) was 50 µg/mL (≈ 213 µM). It also gave an MIC (Bacteroides fragilis; Table IV, anaerobic, strain 10,278, read-out: Minimum Inhibitory Concentration) of 50 µg/mL (≈ 213 µM), an MIC (Bacteroides fragilis; Table IV, anaerobic, strain 10,279, read-out: Minimum Inhibitory Concentration) of 50 µg/mL (≈ 213 µM) and an MIC (Bacteroides fragilis; Table IV, anaerobic, strain 10,281, read-out: Minimum Inhibitory Concentration) of 50 µg/mL (≈ 213 µM). The MIC (Bacteroides fragilis; Table IV, anaerobic, strain 11,085, read-out: Minimum Inhibitory Concentration) was 100 µg/mL (≈ 425 µM), the MIC (Bacteroides fragilis; Table IV, anaerobic, strain 11,086, read-out: Minimum Inhibitory Concentration) was 50 µg/mL (≈ 213 µM) and the MIC (Bacteroides fragilis; read-out: Minimum Inhibitory Concentration) was 12.5 µg/mL (≈ 53.1 µM). The MIC (Pseudomonas aeruginosa [7]; read-out: Minimum Inhibitory Concentration, Table I, BA-2 agar, strain 8754) was > 100 µg/mL, the MIC (Pseudomonas aeruginosa [7]; read-out: Minimum Inhibitory Concentration, Table I, BA-2 agar, strain 9330) was 50 µg/mL (≈ 213 µM) and the MIC (Pseudomonas aeruginosa [7]; read-out: Minimum Inhibitory Concentration, Table I, BA-2 agar, strain 9545) was 25 µg/mL (≈ 106 µM). For the same compound, the MIC (Pseudomonas aeruginosa [7]; read-out: Minimum Inhibitory Concentration, Table II, additional tests, strain 8754) was 100 µg/mL (≈ 425 µM), the MIC (Pseudomonas aeruginosa [7]; read-out: Minimum Inhibitory Concentration, Table II, additional tests, strain 9330) was > 200 µg/mL and the MIC (Pseudomonas aeruginosa [7]; read-out: Minimum Inhibitory Concentration, Table II, additional tests, strain 9545) was 12.5 µg/mL (≈ 53.1 µM). The MIC (Serratia marcescens [8]; read-out: Minimum Inhibitory Concentration, Table I, BA-2 agar, strain 1111) was > 100 µg/mL, the MIC (Serratia marcescens [8]; read-out: Minimum Inhibitory Concentration, Table I, BA-2 agar, strain 9782) was 100 µg/mL (≈ 425 µM) and the MIC (Serratia marcescens [8]; read-out: Minimum Inhibitory Concentration, Table II, additional tests, strain 9782) was 50 µg/mL (≈ 213 µM). For the same compound, the MIC (Serratia marcescens [8]; read-out: Minimum Inhibitory Concentration, Table II, additional tests, strain 11,111) was 100 µg/mL (≈ 425 µM), the MIC (Escherichia coli; read-out: Minimum Inhibitory Concentration, Table III, H-59 agar, strain 10,404) was 50 µg/mL (≈ 213 µM) and the MIC (Escherichia coli; read-out: Minimum Inhibitory Concentration, Table III, H-59 agar, strain 10,857) was 25 µg/mL (≈ 106 µM). For the same compound, the MIC (T. rubrum) was 50 µg/mL (≈ 213 µM), the MIC (Serratia marcescens [9]; Serratia marcescens, read-out: Minimum Inhibitory Concentration) was 100 µg/mL (≈ 425 µM) and the “Minimum Inhibitory Concentration” value (Serratia marcescens [9]; Table III, H-59 agar, strain 11,111) was 100.0 µg/mL. For the same compound, the MIC (Streptococcus faecalis [10]; [13]) was > 100 µg/mL, the MIC (Streptococcus faecalis [10]; [14]) was > 200 µg/mL and the MIC (Salmonella typhimurium [11]; Salmonella enterica, TYPHIMURIUM, read-out: Minimum Inhibitory Concentration) was 50 µg/mL (≈ 213 µM). For the same compound, the “Minimum Inhibitory Concentration” value (Salmonella typhimurium [11]; Table II, additional tests, strain 9201) was 50 µg/mL and the MIC (Streptococcus faecalis [12]) was > 100 µg/mL.
